The values that follow are results of earlier work, collected in paper PMC3961596 (Advances in Therapy, 2014).

This data set concerns urinary glucose excretion. Particulars: healthy subjects; cited from earlier work.
On to `Cc1ccc([C@@H]2O[C@H](CO)[C@@H](O)[C@H](O)[C@H]2O)cc1Cc1ccc(-c2ccc(F)cc2)s1` [canagliflozin], for which the “maximum amount of daily UGE after multiple dose” value was 50 to 55 g/day and the “maximum amount of daily UGE after single dose” value was “approximately 70 g/day”.
On to `CCOc1ccc(Cc2cc([C@@H]3O[C@H](CO)[C@@H](O)[C@H](O)[C@H]3O)ccc2Cl)cc1` [dapagliflozin], for which the “maximum amount of daily UGE after multiple dose” value is 50 to 55 g/day and the “maximum amount of daily UGE after single dose” value is “approximately 70 g/day”.
On to `OC[C@H]1O[C@@H](c2ccc(Cl)c(Cc3ccc(O[C@H]4CCOC4)cc3)c2)[C@H](O)[C@@H](O)[C@@H]1O` [empagliflozin], for which the “maximum amount of daily UGE after multiple dose” value is 50 to 55 g/day and the “maximum amount of daily UGE after single dose” value was “approximately 70 g/day”.
With `OC[C@H]1O[C@@H](c2ccc(F)c(Cc3cc4ccccc4s3)c2)[C@H](O)[C@@H](O)[C@@H]1O` [ipragliflozin], the “maximum amount of daily UGE after multiple dose” value is 50 to 55 g/day and the “maximum amount of daily UGE after single dose” value is reported as “approximately 70 g/day”.
